The source of these data is patent US11236055B2 (Venenum Biodesign, LLC, priority 2016, dated 2022).

One data set deals with T1, human TGR5 receptor (Homo sapiens, UniProt Q8TDU6).
T1 construct: host or cells: CHO-K1 (hTGR5-CHO cells)
T1 sequence (Q8TDU6 1-330): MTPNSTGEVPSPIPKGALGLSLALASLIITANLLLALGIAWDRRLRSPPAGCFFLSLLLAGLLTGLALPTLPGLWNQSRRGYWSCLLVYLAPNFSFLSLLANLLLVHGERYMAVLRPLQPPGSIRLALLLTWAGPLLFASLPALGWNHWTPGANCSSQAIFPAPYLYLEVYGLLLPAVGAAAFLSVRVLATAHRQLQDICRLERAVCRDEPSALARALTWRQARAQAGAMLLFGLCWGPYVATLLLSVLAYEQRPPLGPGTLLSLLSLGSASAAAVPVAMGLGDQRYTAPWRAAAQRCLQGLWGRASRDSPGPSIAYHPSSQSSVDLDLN
Nature of the data set: Human TGR5 cAMP production assay. In kind it is cell-based. Particulars: human TGR5, luminescent cAMP assay; coded A-D; read-out: Human TGR5 Lum. cAMP Activity (EC50). The essentials: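 Intracellular cAMP read by luminescent enzyme-complementation (XS+) after overnight development, following 1 h room-temperature compound treatment of hTGR5-CHO-K1 cells in IBMX plus anti-cAMP antibody. Compounds tested as half-log dilution series; EC50 derived.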
Background: cAMP levels reflect the balance of adenylyl cyclase and phosphodiesterase activity.

Data set [1] in a line: Pharmacokinetic profile in mice. Type of data set: in vivo. To be noted: mouse; fasted male Hilltop mice, 10 mg/kg oral gavage, plasma, mean of three mice. The essentials: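 Fasted 8-week-old male Hilltop mice received 10 mg/kg by oral gavage in 20% PEG400/80% 0.5% CMC + 0.25% Tween-80. Plasma was sampled at 0–4 h, with at most 3 draws per mouse, and measured by LC-MS/MS (0.1–500 ng/mL standards). Cmax and AUC were derived non-compartmentally; values are means of three mice.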

For data set [2], the system named is GLP-1 levels in the blood of male C57BL/6NTac mice. Nature of the data set: In vivo mouse GLP-1 study, single oral dose. Particulars: 10 mg/kg oral, 4 h post-dose, sitagliptin 3 mg/kg pre-dose. The procedure:
In Vivo Mouse GLP-1 Study
12-14 week old male C57BL/6NTac (Taconic) mice were divided into experimental groups (n=6) by randomizing mice based on pre-fasting body weight and then were fasted overnight. On experiment day, all mice were dosed with 3 mg/kg sitagliptin via oral gavage exactly 1 hour before oral gavage dosing of vehicle (0.5% carboxymethylcellulose (medium viscosity)+0.25% Tween-80) or 10 mg/kg compound in vehicle. Four (4) hours following the administration of compound, blood was collected via cardiac puncture. For the GLP-1 assay, 200-250 μL of blood was placed in an EDTA K^2+ tube containing 5 μL of 40 mg/mL aprotinin (Sigma A1153) and 1 μL of 10 mM sitagliptin (Sigma S8576) and plasma was separated by centrifugation. Plasma samples were stored at −20° C. until analysis. The active form of GLP-1 [GLP-1 (7-36) amide] was analyzed using Meso Scale Discovery System according to the manufacturer's directions (item number K150HYC). Values of p<0.05 are considered statistically significant.
The active GLP-1 assay results from the mice in vivo study are shown in Table 36 and FIG. 1, expressed as fold change over vehicle.

SMILES strings stand for the structures.

As a reminder, the EC50 is the concentration giving half of the maximal effect. As usually defined, the Cmax is the highest concentration seen after dosing. As to `CCc1cnccc1-c1cccc([C@H](C)N(CCCC(=O)NCCCS(=O)(=O)O)S(=O)(=O)c2cccc(Cl)c2C)c1` [Compound 20AM, (S)-3-(4-(3-chloro-N-(1-(3-(3-ethylpyridin-4-yl)phenyl)ethyl)-2-methylphenylsulfonamido)butanamido)propane-1-sulfonic acid], the half-maximal effective concentration (EC50) at human TGR5 receptor was < 100 nM. Besides, in data set [1], the Cmax turned out to be 0.9 ng/mL. Moreover, the “Fold Increase (active GLP-1, fold change over vehicle)” value in data set [2] is 2.3.

Take `Cc1cnccc1-c1cccc(C(C)(C)N(CCCC(=O)NCC(=O)O)S(=O)(=O)c2cccc(Cl)c2C)c1` [Compound 21AB, 2-(4-(3-chloro-2-methyl-N-(2-(3-(3-methylpyridin-4-yl)phenyl)propan-2-yl)phenylsulfonamido)butanamido)acetic acid]: the EC50 at human TGR5 receptor is < 100 nM. This molecule also had a Cmax in data set [1] of 19.4 ng/mL. In data set [2], the “Fold Increase (active GLP-1, fold change over vehicle)” value is listed as 3.0.

As for `Cc1cnccc1-c1cccc(C(C)(C)N(CCCC(=O)NC[C@@H](O)[C@H](O)[C@@H](O)[C@@H](O)CO)S(=O)(=O)c2cccc(Cl)c2C)c1` [Compound 20AF, 4-(3-chloro-2-methyl-N-(2-(3-(3-methylpyridin-4-yl)phenyl)propan-2-yl)phenylsulfonamido)-N-((2R,3S,4S,5S)-2,3,4,5,6-pentahydroxyhexyl)butanamide], on human TGR5 receptor, the EC50 is < 100 nM. In data set [1], the Cmax was 5.2 ng/mL. Also, the “Fold Increase (active GLP-1, fold change over vehicle)” value in data set [2] stood at 0.8.

Consider `Cc1cnccc1-c1cccc(C(C)(C)N(CCCC(=O)NCCCS(=O)(=O)O)S(=O)(=O)c2cccc(Cl)c2C)c1` [Compound 20AD, 3-(4-(3-chloro-2-methyl-N-(2-(3-(3-methylpyridin-4-yl)phenyl)propan-2-yl)phenylsulfonamido)butanamido)propane-1-sulfonic acid], for which the EC50 on human TGR5 receptor was < 100 nM. For the same molecule, in data set [1], the concentration peaked (Cmax) at 2.5 ng/mL. Further, in data set [2], the “Fold Increase (active GLP-1, fold change over vehicle)” value amounted to 1.9.

Consider `CCc1cnccc1-c1cccc([C@H](C)N(CCCC(=O)NCCS(=O)(=O)O)S(=O)(=O)c2ccccc2C(F)(F)F)c1` [Compound 20BF, (S)-2-(4-(N-(1-(3-(3-ethylpyridin-4-yl)phenyl)ethyl)-2-(trifluoromethyl)phenylsulfonamido)butanamido)ethanesulfonic acid], for which the EC50 at human TGR5 receptor is < 100 nM. The same molecule displayed a Cmax in data set [1] of 0.8 ng/mL. In addition, the “Fold Increase (active GLP-1, fold change over vehicle)” value in data set [2] was 2.9.

As to `Cc1cnccc1-c1cccc([C@H](C)N(CCCC(=O)NCCS(=O)(=O)NCCCC(=O)O)S(=O)(=O)c2ccccc2C(F)(F)F)c1` [Compound 20BK], the 50% effective concentration (EC50) at human TGR5 receptor was < 100 nM. The molecule further registered a Cmax in data set [1] of 0.4 ng/mL. The “Fold Increase (active GLP-1, fold change over vehicle)” value in data set [2] came to 1.3.

Consider `CCc1cnccc1-c1cccc([C@H](C)N(CCCC(=O)NCCS(=O)(=O)NCC(=O)O)S(=O)(=O)c2cccc(Cl)c2C)c1` [Compound 21AT, (S) 2-(3-(4-(3-chloro-2-methyl-N-(1-(3-(3-ethylpyridin-4-yl)phenyl)ethyl)phenylsulfonamido)butanamido)ethylsulfonamido)acetic acid], for which the EC50 on human TGR5 receptor was < 100 nM. The concentration in data set [1] peaked (Cmax) at 1.6 ng/mL. Besides, the “Fold Increase (active GLP-1, fold change over vehicle)” value in data set [2] turned out to be 4.2.

Take `CCc1cnccc1-c1cccc(C(C)(C)N(CCCC(=O)NCCS(=O)(=O)O)S(=O)(=O)c2cccc(Cl)c2C)c1` [Compound 20AC, 2-(4-(3-chloro-N-(2-(3-(3-ethylpyridin-4-yl)phenyl)propan-2-yl)-2-methylphenylsulfonamido)butanamido)ethanesulfonic acid]: the EC50 at human TGR5 receptor was < 100 nM. The same molecule displayed a maximum concentration (Cmax) in data set [1] of 7.8 ng/mL. In addition, the “Fold Increase (active GLP-1, fold change over vehicle)” value in data set [2] is given as 1.2.

With `CCc1cnccc1-c1cccc([C@H](C)N(CCCC(=O)NCCS(=O)(=O)NCC(=O)O)S(=O)(=O)c2ccccc2C(F)(F)F)c1` [Compound 20BG], the half-maximal effective concentration (EC50) at human TGR5 receptor is < 100 nM. The maximum concentration (Cmax) in data set [1] was 0.3 ng/mL. Further, the “Fold Increase (active GLP-1, fold change over vehicle)” value in data set [2] came to 4.4.

Take `Cc1cnccc1-c1cccc(C(C)(C)N(CCCC(=O)NCCS(=O)(=O)NCC(=O)O)S(=O)(=O)c2cccc(Cl)c2C)c1` [Compound 20AW, (4-(3-chloro-2-methyl-N-(2-(3-(3-methylpyridin-4-yl)phenyl)propan-2-yl)phenylsulfonamido)-N-butanamidoethylsulfonamido)acetic acid]: the concentration for a half-maximal effect (EC50) on human TGR5 receptor was < 100 nM. Further, in data set [1], the maximum concentration (Cmax) is 2.8 ng/mL. The “Fold Increase (active GLP-1, fold change over vehicle)” value in data set [2] is recorded as 1.1.

With `Cc1cnccc1-c1cccc(C(C)(C)N(CCCC(=O)NCCS(=O)(=O)O)S(=O)(=O)c2ccccc2C(F)(F)F)c1` [Compound 20AA, 2-(4-(N-(2-(3-(3-methylpyridin-4-yl)phenyl)propan-2-yl)-2-(trifluoromethyl)phenylsulfonamido)butanamido)ethanesulfonic acid], the EC50 on human TGR5 receptor was < 100 nM. Further, in data set [1], the Cmax amounted to 7.2 ng/mL. Further, in data set [2], the “Fold Increase (active GLP-1, fold change over vehicle)” value came to 3.3.

Consider `CCc1cnccc1-c1cccc(C(C)(C)N(CCCC(=O)NCCS(=O)(=O)O)S(=O)(=O)c2ccccc2C(F)(F)F)c1` [Compound 20, 2-(4-(N-(2-(3-(3-ethylpyridin-4-yl)phenyl)propan-2-yl)-2-(trifluoromethyl)-phenylsulfonamido)butanamido)ethanesulfonic acid], for which, on human TGR5 receptor, the EC50 is < 100 nM. This molecule also returned a Cmax in data set [1] of 5 ng/mL. The “Fold Increase (active GLP-1, fold change over vehicle)” value in data set [2] is 1.0.

`CCc1cnccc1-c1cccc([C@H](C)N(CCCC(=O)NCCS(=O)(=O)O)S(=O)(=O)c2cccc(Cl)c2C)c1` [Compound 21AQ, (S)-2-(4-(3-chloro-N-(1-(3-(3-ethylpyridin-4-yl)phenyl)ethyl)-2-methylphenylsulfonamido)butanamido)ethanesulfonic acid]: the half-maximal effective concentration (EC50) on human TGR5 receptor was < 100 nM. The highest level in data set [1] (Cmax) was 4.2 ng/mL. Besides, in data set [2], the “Fold Increase (active GLP-1, fold change over vehicle)” value is listed as 2.0.

`Cc1cnccc1-c1cccc([C@H](C)N(CCCCC(=O)NCCS(=O)(=O)NCC(=O)O)S(=O)(=O)c2ccccc2C(F)(F)F)c1` [Compound 20BL, (S) 2-(4-(N-(1-(3-(3-methylpyridin-4-yl)phenyl)ethyl)-2-(trifluoromethyl)phenylsulfonamidopentanamido)ethylsulfonamido)acetic acid]: at human TGR5 receptor, the 50% effective concentration (EC50) is < 100 nM. In data set [1], this molecule came in with a Cmax of 1.2 ng/mL. Moreover, the “Fold Increase (active GLP-1, fold change over vehicle)” value in data set [2] was determined as 2.1.

Turning to `Cc1cnccc1-c1cccc([C@H](C)N(CCCC(=O)NCCS(=O)(=O)NCC(=O)O)S(=O)(=O)c2cccc(Cl)c2C)c1` [Compound 21AN, (S) 2-(3-(4-(3-chloro-2-methyl-N-(1-(3-(3-methylpyridin-4-yl)phenyl)ethyl)phenylsulfonamido)butanamido)ethylsulfonamido)acetic acid], the concentration giving a half-maximal response (EC50) at human TGR5 receptor is < 100 nM. Further, the Cmax in data set [1] stood at 1.9 ng/mL.
